Where two headings read alike, the source gives them in different places.
Tests used:
[1] = test system: S. aureus ATCC 25923 biofilm; assay: High-throughput susceptibility testing of CBD biofilm to biocides/metals with or without V9T14; type: cell-based, Staphylococcus aureus; conditions: 8 h exposure
Protocol: (§1) E. coli CFT073 and E. coli O157:H7 were grown on Luria Bertani agar (LB, EMD Chemicals Inc.), P. aeruginosa PA14 and S. aureus were grown on TSB agar. Susceptibility testing of metals was performed in Minimal Salts Vitamins Glucose (MSVG) according to Teitzel and Parsek (2003), while Polycide susceptibility testing was performed in Phosphate Buffered Saline (PBS).
(§2) AgNO3 (Sigma) and CuSO4 (Sigma) were dissolved in double distilled water (ddH2O) to 150 mM and 500 mM respectively. Polycide was diluted in PBS to 25%. Solutions were sterile filtered and stored at 4° C. Serial two-fold dilutions were performed to create the challenge plate.
(§3) Biofilms were grown in the Calgary Biofilm Device (CBD) as described above. Starting from cryogenic stock, the strain was streaked out twice on TSA, and an inoculum was prepared by suspending colonies from the secondary agar subculture in 0.9% saline to match a 1.0 McFarland standard. This standard inoculum was diluted 1/30 in LB broth.
150 μL of this inoculum was transferred into each well of a 96-well plate, and the sterile peg lid of the CBD was inserted into the plate. […]
Following this period of incubation, biofilms were rinsed once with 0.9% saline (200 μL/well) to remove loosely adherent planktonic cells. Biofilm formation was evaluated by breaking off four pegs from each device after it has been rinsed. […]

[2] = test system: P. aeruginosa PA14 biofilm; type: cell-based, Pseudomonas aeruginosa
Protocol: as §1, §2, §3
(§4) 150 μL of this inoculum was transferred into each well of a 96-well plate, and the sterile peg lid of the CBD was inserted into the plate. The inoculated device was then incubated at 125 rpm, for 24 h at 37° C. and 95% relative humidity. In an alternative set of experiments, biofilms were grown for 48 h before silver exposure and spent medium was changed with fresh medium after 24 h.
Following this period of incubation, biofilms were rinsed once with 0.9% saline (200 μL/well) to remove loosely adherent planktonic cells. Biofilm formation was evaluated by breaking off four pegs from each device after it has been rinsed. Biofilms were disrupted from pegs into 200 μL/well of LB supplemented with 1% Tween 20 using an ultrasonic cleaner for a period of 10 min (Aquasonic model 250T, VWR Scientific, Mississauga, Canada) as described above. The disrupted biofilms were serially diluted in 0.9% saline and plated on LB agar for viable cell counting. An initial set of quality control assays were carried out to ascertain that the strain used in this study formed equivalent biofilm on the CBD pegs as described in Harrison (2008). […]

[3] = test system: E. coli CFT073 biofilm; type: cell-based, Escherichia coli; conditions: for concentration for eradication of biofilm: 24 h exposure
Protocol: as §1
Extracted V9T14 biosurfactant was stored under the chemical hood providing solvent evaporation until dryness. The biosurfactant powder was homogenized using a porcelain mortar and a pestle. V9T14 was dissolved in PBS and pH was adjusted to 7.5 with 1 N NaOH. Volume was adjusted to match a final concentration of 5000 μg/mL.
as §2, §3, §4
Following this period of incubation, biofilms were rinsed once with 0.9% saline (200 μL/well) to remove loosely adherent planktonic cells. Biofilm formation was evaluated by breaking off four pegs from each device after it has been rinsed. Biofilms were disrupted from pegs into 200 μL/well of LB supplemented with 1% Tween 20 using an ultrasonic cleaner for a period of 10 min (Aquasonic model 250T, VWR Scientific, Mississauga, Canada) as described above. The disrupted biofilms were serially diluted in 0.9% saline and plated on LB agar for viable cell counting. An initial set of quality control assays were carried out to ascertain that the strain used in this study formed equivalent biofilm on the CBD pegs as described in Harrison (2008).
(§5) The challenge plate of biocides, antibiotics and biosurfactant was made in a 96-well plate. Biocides were serially two-fold diluted in PBS and V9T14 biosurfactant was added to each well at the final concentration of 5 μL/mL. Antibiotics were similarly diluted in Muller-Hinton broth, while metals were diluted in MSVG.
Biofilms that have been grown on lids of the CBD and rinsed once in 0.9% saline were inserted in the challenge plates. Following the exposure time at 37° C., biofilms were rinsed once with 0.9% saline (200 μL/well) and then placed in a microtiter “recovery” plate that contained 200 μL/well of neutralizing medium (TSB supplemented with 1% Tween 20, 2.0 g/L reduced glutathione, 1.0 g/L L-histidine, 1.0 g/L L-cysteine). The recovery plate was sonicated for a period of 10 min (Aquasonic model 250T, VWR Scientific, Mississauga, Canada). The disrupted biofilms were serially diluted in 0.9% saline and plated on the appropriate agar medium for viable cell counting. Plates were then incubated at 37° C. overnight and finally enumerated.

[4] = test system: planktonic E. coli CFT073; type: cell-based, Escherichia coli
Protocol: as §5, with “MSVG. When prepared, each challenge plate had 7 sterility control, 8 growth control, 11 wells containing 5 μL/mL of V9T14 biosurfactant, 11 different concentrations of single biocide (or metals) and 11 different concentrations of biocide (or metals) associated with 5 μL/mL of V9T14 biosurfactant.” for “MSVG.”
To define MBC of biocides, recovery plates were incubated at 37° C. for 24-48 h and the adsorbance (OD650 nm) was read in a microtiter plate reader.

SMILES | maximum reduction of viable cell count with V9T14 [1] | reduction of the concentration needed to bring biofilm below detectable count when V9T14 present [1] | maximum increase of killing with V9T14 [2] | enhancement of killing activity by presence of V9T14 ([3]; 2 h exposure, 3.750 mM silver, 5 μg/mL V9T14) | enhancement of killing activity by presence of V9T14 ([3]; 8 h exposure, 0.015 mM silver (p=0.03)) | silver concentration needed with V9T14 relative to silver alone (fold less) ([3]; biofilm reduced below detection limit) | concentration for eradication of biofilm ([3]; silver alone) | concentration for eradication of biofilm ([3]; silver with 5 μg/mL V9T14 added) | increase of killing efficacy by V9T14 ([3]; solution prepared 48 h before, 4 h exposure (p=0.0007)) | metal concentration needed with V9T14 relative to silver alone (fold less) ([4]; 5 μg/mL V9T14, 24 h) | concentration from which complete inhibition of growth was observed ([4]; silver alone, 24 h) | concentration required to eradicate the biofilm ([2]; silver alone, 8 h exposure) | concentration required to eradicate the biofilm ([2]; silver with 5 μg/mL V9T14, 8 h exposure)
O=S(=O)([O-])[O-].[Cu+2] [copper, cupric sulfate] | about 2.4 log10 | about 95% | about 2.2 log10 | – | – | – | – | – | – | – | – | – | –
O=[N+]([O-])[O-].[Ag+] [silver, silver nitrate] | – | – | – | about 0.6 log10 | about 3.2 log10 | 258 fold | 7.5 mM | 0.029 mM | about 2.3 log10 | 64 fold | 7.5 mM | 0.469 mM | 0.117 mM

From patent publication US8377455B2, “Biosurfactant composition produced by a new Bacillus licheniforms strain, uses and products thereof” (priority 2008, dated 2013)
